According to patent US20180318383A1, “PEPTIDE HAVING NEURONAL LOSS PREVENTION AND REGENERATION EFFECTS, AND COMPOSITION CONTAINING SAME” (GEMVAX & KAEL CO., LTD., priority 2015, published 2018):

Legend:
NSCs [1] = experiment: NSC differentiation in bFGF-free N2 medium (immunostaining); assay type: cell-based, rat; conditions: Aβ25-35 increased GFAP-positive and decreased NeuN-positive cells
Protocol: NSC differentiation was induced by changing the cell culture medium to a bFGF (10 ng/ml)-free N2 medium, and the medium was exchanged daily.
Immunostaining was carried out to confirm intracellular expression and locations. For immunostaining, the following antibodies were used: Ki67 (1:100 Abcam), rabbit anti-doublecortin (1 mg/mL; Abcam), rabbit anti-glial fibrillary acidic protein (GFAP) (1:5000; Abcam), rabbit anti-Tuj1 (1 mg/mL; Abcam), mouse anti-GalC (1 mg/mL; Millipore), and rabbit anti-HMGB1 (1:100; Cell Signaling Technology).
However, in a large number of GFAP-positive cells and NeuN-positive cells, such immune responses were increased after differentiation.

NSCs [2] = experiment: Apoptosis of NSCs by DAPI and TUNEL staining; assay type: cell-based, rat; conditions: 20 μM Aβ25-35 + PEP1 up to 100 μM, 48 hours; p<0.05
Protocol: NSCs were placed onto collagen-coated glass coverslips with a diameter of 13 mm, and then treated in the manner described below: 1) […]; 2) treated with only 20 μM Aβ25-30; or 3) treated with 20 μM Aβ25-30 and PEP1 at each concentration (1, 10, 50, or 100 μM) for 48 hours.
The cells were washed with PBS and fixed with 4% paraformaldehyde for 20 minutes.
TUNEL staining is a method used to confirm apoptosis. To observe an intact, condensed or fragmented nucleus, the cells that have been stained with TUNEL were treated with 100 μg/ml DAPI for 20 minutes to stain the nucleus, and then mounted on a glass slide to which a DAPI-mixed mounting medium was applied.
The cells were observed under a fluorescence microscope and observed at excitation fluorescence wavelengths corresponding to DAPI and TUNEL.

oligomer Aβ = experiment: Expression level of oligomer Aβ in 3XTg-AD mice (western blotting); assay type: in vivo; conditions: hippocampus and whole brain; vs control and Donepezil
Protocol: (§1) To test the efficacy of PEP1 on AD, AD transgenic mice (3XTg-AD) were purchased from Jackson Laboratory. Genetic characteristics of the transgenic mice are as follows: B6; 129-Psen1tm1Mpm Tg(APPSwe, tauP301L)1Lfa/Mmjax. […] One week after mice were confirmed as pregnant, new mice were delivered and weaned for 3 weeks. Two weeks later, mature mice were obtained.
(§2) During the preliminary breeding and the entire period of the experiment, a temperature was maintained at 23±2° C. and a relative humidity was maintained at 60±10%, and then the mice were raised under a 12-hour dark/light cycle. Experimental animals were divided into five groups, and each group included 10 animals. The divided experimental groups are as follows. […]
(§3) The PEP1, physiological saline, donepezil and scramble peptide were subcutaneously injected at each concentration three times a week for two months from the age of 12 months, and then two months after the injection, cognitive/memory behavior tests (passive avoidance test and Y maze test) were performed to examine a degree of improvement in cognitive function and memory function. After the brain was extracted to separate the hippocampus, the amounts of amyloid beta in the hippocampus and the whole brain, and the amounts of an amyloid beta oligomer and NFT generated by tau hyperphosphorylation were determined by western blotting and immunostaining. […]

GalC = GalC expression in 3XTg-AD mice (western blotting, immunostaining); assay type: in vivo; conditions: hippocampus and whole brain; s.c. three times a week for two months; vs control and Donepezil, same amount
Protocol: as §1, §2, §3

EARPALLTSRLRFIPK (homo sapiens) [PEP1, hTERT-derived peptide consisting of 16 amino acids, telomerase location [611-626]]
NSC differentiation into GFAP-positive and NeuN-positive cells (NSCs [1]): the opposite effect was observed | degree of apoptosis of NSCs (NSCs [2]): significantly decreased | expression level of oligomer Aβ (oligomer Aβ): decreased | Galc (GalC): increased
